# Results reported in patent US8518980B2, “Treatment of Duchenne muscular dystrophy” (Summit Corporation PLC, priority 2006, dated 2013).
# Tested on: Utrophin A promoter linked to a luciferase reporter gene (H2K/mdx/Utro A reporter cell line)
# Assay: Luciferase reporter assay (murine H2K cells)
# Details: Mus musculus, H2K mdx
row,Structure (SMILES),activity at 10 µM
1,"O=C(COc1ccc2c(c1)OCO2)Nc1nc2ccccc2s1 [Example 614, 2-(Benzo[d][1,3]dioxol-5-yloxy)-N-(benzo[d]thiazol-2-yl)acetamide]",< 200%
2,"CCn1c(C)nc2cc(C(=O)Nc3ccccc3)ccc21 [Example 615, 1-ethyl-2-methyl-N-phenyl-1H-benzo[d]imidazole-5-carboxamide]",> 401%
3,"O=C(Nc1nc2ccccc2s1)c1ccccc1Br [Example 616, N-(benzo[d]thiazol-2-yl)-2-bromobenzamide]",> 401%
4,"O=C(CSc1nc2ccccc2s1)N1CCCCC1 [Example 617, 2-(benzo[d]thiazol-2-ylthio)-1-(piperidin-1-yl)ethanone]",> 401%
5,"O=C(Nc1ccc2c(c1)OCO2)c1sc2ccccc2c1Cl [Example 618, N-(benzo[d][1,3]dioxol-5-yl)-3-chlorobenzo[b]thiophene-2-carboxamide]",> 401%
6,"COc1ccc(-c2nc3ccccc3o2)cc1N [Example 619, 5-(benzo[d]oxazol-2-yl)-2-methoxyaniline]",> 401%
7,"Cc1ccc(-c2nc3ccccc3[nH]2)cc1N [Example 620, 5-(1H-benzo[d]imidazol-2-yl)-2-methylaniline]",> 401%
8,"O=C(Nc1ccccc1F)c1sc2ccccc2c1Cl [Example 621, 3-chloro-N-(2-fluorophenyl)benzo[b]thiophene-2-carboxamide]",> 401%
9,"Nc1cccc(-c2nc3cc(Cl)ccc3o2)c1 [Example 622, 3-(5-chlorobenzo[d]oxazol-2-yl)aniline]",> 401%
10,"Cc1cc2nc(-c3cccc(NC(=O)c4ccco4)c3)oc2cc1C [Example 623, N-(3-(5,6-dimethylbenzo[d]oxazol-2-yl)phenyl)furan-2-carboxamide]",> 401%
11,"CCc1ccc2oc(-c3ccc(C)c(N)c3)nc2c1 [Example 625, 5-(5-ethylbenzo[d]oxazol-2-yl)-2-methylaniline]",> 401%
12,"O=C(Nc1nc2ccccc2s1)c1cc2ccccc2o1 [Example 626, N-(benzo[d]thiazol-2-yl)benzofuran-2-carboxamide]",> 401%
13,"Cc1cc(C)c2oc(-c3ccc(Cl)c(N)c3)nc2c1 [Example 627, 2-chloro-5-(5,7-dimethylbenzo[d]oxazol-2-yl)aniline]",> 401%
14,"Nc1c(C(=O)Nc2ccc(F)cc2)sc2nc3c(cc12)CCC3 [Example 628, 3-amino-N-(4-fluorophenyl)-6,7-dihydro-5H-cyclopenta[e]thieno[2,3-b]pyridine-2-carboxamide]",> 401%
15,"O=C(Nc1nc2ccc(F)cc2s1)c1ccccc1Br [Example 629, 2-bromo-N-(6-fluorobenzo[d]thiazol-2-yl)benzamide]",> 401%
16,"COc1ccc2oc(-c3cccc(N)c3)nc2c1 [Example 630, 3-(5-methoxybenzo[d]oxazol-2-yl)aniline]",> 401%
17,"CCC(C)C(=O)Nc1ccc(-c2nc3ccccc3[nH]2)cc1 (centres unmarked) [Example 631, N-(4-(1H-benzo[d]imidazol-2-yl)phenyl)-2-methylbutanamide]",> 401%
18,"Cc1ccc2[nH]c(-c3sc4nc(C)ccc4c3N)nc2c1 [Example 632, 6-methyl-2-(5-methyl-1H-benzo[d]imidazol-2-yl)thieno[2,3-b]pyridin-3-amine]",> 401%
19,"c1ccc(OCc2nc3ccccc3s2)cc1 [Example 633, 2-(phenoxymethyl)benzo[d]thiazole]",301 to 400%

row,Structure (SMILES),activity at 10 µM
1,"CCn1c(C)nc2cc(-c3ccccc3)ccc21 [Example 634, 1-ethyl-2-methyl-5-phenyl-1H-benzo[d]imidazole]",301 to 400%
2,"Cc1ccc2nc(-c3ccc(C)c(N)c3)oc2c1 [Example 635, 2-methyl-5-(6-methylbenzo[d]oxazol-2-yl)aniline]",301 to 400%
3,"Cc1ccc2oc(-c3ccc(Cl)c(N)c3)nc2c1 [Example 636, 2-chloro-5-(5-methylbenzo[d]oxazol-2-yl)aniline]",301 to 400%
4,"Cc1ccc(NC(=O)Nc2nc3ccccc3s2)cc1 [Example 637, 1-(benzo[d]thiazol-2-yl)-3-p-tolylurea]",301 to 400%
5,"Cc1ccc2nc(-c3ccc(NC(=O)c4cccnc4)cc3)sc2c1 [Example 638, N-(4-(6-methylbenzo[d]thiazol-2-yl)phenyl)nicotinamide]",301 to 400%
6,"c1ccc2nc(-c3nc4ccccc4s3)ccc2c1 [Example 639, 2-(quinolin-2-yl)benzo[d]thiazole]",301 to 400%
7,"COc1ccc(CSc2nc3ccccc3[nH]2)cc1 [Example 640, 2-(4-methoxybenzylthio)-1H-benzo[d]imidazole]",301 to 400%
8,"O=C(Nc1ccc(-c2nc3ncccc3o2)cc1)c1ccccc1Cl [Example 641, 2-chloro-N-(4-(oxazolo[4,5-b]pyridin-2-yl)phenyl)benzamide]",301 to 400%
9,"CCc1ccc2oc(-c3cccc(NC(C)=O)c3)nc2c1 [Example 642, N-(3-(5-ethylbenzo[d]oxazol-2-yl)phenyl)acetamide]",301 to 400%
10,"Cc1ccc2nc(-c3ccc(O)cc3)sc2c1 [Example 643, 4-(6-methylbenzo[d]thiazol-2-yl)phenol]",301 to 400%
11,"CCC(=O)Nc1cccc(-c2nc3cc(C)ccc3o2)c1 [Example 644, N-(3-(5-methylbenzo[d]oxazol-2-yl)phenyl)propionamide]",301 to 400%
12,"COc1ccc(CSc2nc3ccccc3n2C)cc1F [Example 645, 2-(3-fluoro-4-methoxybenzylthio)-1-methyl-1H-benzo[d]imidazole]",301 to 400%
13,"Cc1cc2nc(-c3cc(N)ccc3Cl)oc2cc1C [Example 646, 4-chloro-3-(5,6-dimethylbenzo[d]oxazol-2-yl)aniline]",301 to 400%
14,"c1cc(NCc2ccncc2)cc(-c2nc3ccccc3s2)c1 [Example 647, 3-(benzo[d]thiazol-2-yl)-N-(pyridin-4-ylmethyl)aniline]",301 to 400%
15,"Cc1ccccc1C(=O)Nc1nc2ccccc2[nH]1 [Example 648, N-(1H-benzo[d]imidazol-2-yl)-2-methylbenzamide]",301 to 400%
16,"Cc1cc(-c2nc3cc(N)ccc3o2)ccc1Br [Example 649, 2-(4-bromo-3-methylphenyl)benzo[d]oxazol-5-amine]",301 to 400%
17,"Cc1cccc(NC(=O)c2sc3nc(C)cc(C)c3c2N)c1 [Example 650, 3-amino-4,6-dimethyl-N-m-tolylthieno[2,3-b]pyridine-2-carboxamide]",301 to 400%
18,"CC(C)C(=O)Nc1ccc(-c2nc3ccccc3s2)cc1 [Example 651, N-(4-(benzo[d]thiazol-2-yl)phenyl)isobutyramide]",301 to 400%
19,"Cc1ccc2nc(NC(=O)c3ccco3)sc2c1 [Example 652, N-(6-methylbenzo[d]thiazol-2-yl)furan-2-carboxamide]",301 to 400%

row,Structure (SMILES),activity at 10 µM
1,"Nc1cc(-c2nc3ccccc3[nH]2)ccc1Cl [Example 653, 5-(1H-benzo[d]imidazol-2-yl)-2-chloroaniline]",301 to 400%
2,"Cc1ccc2nc(-c3ccc(NC(=O)CSc4nnc[nH]4)cc3)sc2c1 [Example 654, 2-(4H-1,2,4-triazol-3-ylthio)-N-(4-(6-methylbenzo[d]thiazol-2-yl)phenyl)acetamide]",301 to 400%
3,"CC(=O)Oc1ccc(C(=O)Nc2ccc(-c3nc4ccccc4[nH]3)cc2)cc1 [Example 655, 4-(4-(1H-benzo[d]imidazol-2-yl)phenylcarbamoyl)phenyl acetate]",301 to 400%
4,"Cc1cc2oc(C(=O)NCc3ccncc3)c(C)c2cc1C [Example 656, 3,5,6-trimethyl-N-(pyridin-4-ylmethyl)benzofuran-2-carboxamide]",301 to 400%
5,"CCOCC(=O)Nc1ccc(-c2nc3ccc(C)cc3s2)cc1 [Example 657, 2-ethoxy-N-(4-(6-methylbenzo[d]thiazol-2-yl)phenyl)acetamide]",301 to 400%
6,"O=C(Nc1nc2ccc(F)cc2s1)c1cccs1 [Example 658, N-(6-fluorobenzo[d]thiazol-2-yl)thiophene-2-carboxamide]",301 to 400%
7,"Cc1nn(-c2nc3ccccc3[nH]2)c(N)c1-c1ccccc1 [Example 659, 1-(1H-benzo[d]imidazol-2-yl)-3-methyl-4-phenyl-1H-pyrazol-5-amine]",301 to 400%
8,"CCOCCC(=O)Nc1ccc(-c2nc3ccc(C)cc3s2)cc1 [Example 660, 3-ethoxy-N-(4-(6-methylbenzo[d]thiazol-2-yl)phenyl)propanamide]",301 to 400%
9,"O=C(Nc1ccc(-c2nc3ccccc3s2)cc1)C1CC1 [Example 661, N-(4-(benzo[d]thiazol-2-yl)phenyl)cyclopropanecarboxamide]",301 to 400%
10,"CC(=O)Nc1ccc(-c2nc3cc(C)ccc3o2)cc1 [Example 662, N-(4-(5-methylbenzo[d]oxazol-2-yl)phenyl)acetamide]",301 to 400%
11,"Cc1ccc(NC(=O)C(=O)c2c[nH]c3ccccc23)c(Br)c1 [Example 663, N-(2-bromo-4-methylphenyl)-2-(1H-indol-3-yl)-2-oxoacetamide]",301 to 400%
12,"Cc1ccc2nc(-c3ccc(N)cc3)sc2c1 [Example 664, 4-(6-methylbenzo[d]thiazol-2-yl)aniline]",201 to 300%
13,"O=C(NCCc1ccccc1)c1cc2ccccc2o1 [Example 665, N-phenethylbenzofuran-2-carboxamide]",201 to 300%
14,"Cn1c(CNc2ccc(Cl)cc2)nc2ccccc21 [Example 666, 4-chloro-N-((1-methyl-1H-benzo[d]imidazol-2-yl)methyl)aniline]",201 to 300%
15,"CCC(=O)Nc1ccc(-c2nc3ccccc3s2)cc1 [Example 667, N-(4-(benzo[d]thiazol-2-yl)phenyl)propionamide]",201 to 300%
16,"CCC(=O)Nc1ccc2oc(-c3cccc(C)c3)nc2c1 [Example 668, N-(2-m-tolylbenzo[d]oxazol-5-yl)propionamide]",201 to 300%
17,"Cn1c(NC(=N)c2ccccc2)nc2ccccc21 [Example 669, N-(1-methyl-1H-benzo[d]imidazol-2-yl)benzimidamide]",201 to 300%
18,"O=C(Nc1nc2ccccc2s1)c1cc(Br)ccc1Cl [Example 671, N-(benzo[d]thiazol-2-yl)-5-bromo-2-chlorobenzamide]",201 to 300%
